Measured values reported in patent publication US8748116B2, “1L1RL-1 as a cardiovascular disease marker and therapeutic target” (The Brigham and Women s Hospital, Inc., priority 2002, dated 2014).
Entries after “also recorded” stand apart in the source; their conditions may differ. Starred links: 1 amine or outer side, 2 acyl side, 3 side chain; linkers in the order of their positions; H or OH if unused. Positions of bridges follow the written chain, without caps; N, C: chain ends. Non-standard residues stand in square brackets, D forms with d. Residues, ends and D or L forms follow the SMILES beside them. Chains are numbered I, II in the order given. Actinocin(9to1) = Cc1c2oc3c(C)ccc(C(=O)[*:1])c3nc-2c(C(=O)[*:2])c(N)c1=O; NMeV = CN[C@H](C(=O)O)C(C)C; Sar = CNCC(=O)O

How the values were obtained:
[1] = system: IL1RL-1 mRNA expression; assay: Northern blot of IL1RL-1 (T1/ST2) mRNA induction in cultured neonatal rat cardiac myocytes, with or without 8% cyclic mechanical strain; format: cell-based; conditions: for induction of IL1RL-1 mRNA expression in the absence of mechanical strain: FIG. 2, 3 hours, Ang II 50 nM; for induction of IL1RL-1 mRNA expression in the absence of mechanical strain / rank order potency for the induction of IL1RL-1 mRNA expression / induction of IL1RL-1 mRNA expression by the agent alone: IL-1β 10 ng/ml; for induction of IL1RL-1 mRNA expression in the absence of mechanical strain / rank order potency for the induction of T1/ST2 mRNA expression: PMA 200 nM; for effect on the induction of IL1RL-1 mRNA expression by 8% mechanical strain: FIG. 4, applied during strain, actinomycin D 5 μg/ml (2 and 4 hours), cyclohexamide 10 μg/ml; for rank order potency for the induction of IL1RL-1 mRNA expression: PMA 100 ng/ml, 8% strain; for induction of IL1RL-1 mRNA expression by the agent alone: PMA 100 ng/ml in the absence of strain; for rank order potency for the induction of T1/ST2 mRNA expression: strain 8%, 1 and 3 hours
From the text: The approach to mechanical stimulation used an apparatus that has multiple platens that contact the underside of silicone elastomer membranes to apply a spatially isotropic biaxial strain profile to the membrane (Schaffer J L, et al., J Orthop Res, 1993, 12:709-719; and U.S. Provisional Patent application 60/144,134 filed on Jul. 16, 1999 entitled “AN APPARATUS FOR STUDYING MYOCARDIAL MECHANICAL OVERLOAD HYPERTROPHY AND USES THEREFOR, by Richard T. Lee. Six individual 78 mm membranes can be stretched at once with varying amplitudes of strain by controlling displacement of each platen with a stepper motor. Measured Green strains are accurate to ˜±0.25% at strains from 1-14% (Cheng G C, et al., Circ Res, 1997, 80:28-36; Brown T D, J Biomechanics, 2000, 33:3-14). Throughout this study, 8% biaxial strain was used.
Neonatal rat ventricular myocytes (NRVM) from 1-day old Sprague-Dawley rats were isolated by previously described methods (Springhorn J P, and Claycomb W C., Biochem J, 1989; 258:73-78; Arstall M A, et al., J Mol Cell Cardiol, 1998, 30:1019-25). NRVM were plated on the coated membrane dish at a density of 2,000,000 cells/dish in DMEM containing 7% FCS and incubated 24 h. Approximate cell confluence was 85-90%. NRVM were then made quiescent by washing with 10 ml of Hanks' balanced salt solution (HBSS, 138 mM NaCl, 5.3 mM KCl, 4.0 mM NaHCO3, 1.3 mM CaCl2, 0.5 mM MgCl2, 0.4 mM MgSO4, 0.4 mM KH2PO4, 0.3 mM Na2HPO4, 5.6 mM glucose; Life Technologies, Inc., Rockville, Md.) twice and incubating with 26 ml of DMEM containing 0.2% FCS for 48-72 hours.
The cDNA clones for differentially expressed genes were obtained by PCR using the GenBank sequences. Each clone was sequenced from both 5′ and 3′ ends to confirm identity. Positive elements in the DNA microarray were confirmed by Northern blot hybridization analysis in at least three independent experiments using three different sources of NRVMs. Total RNA was isolated by the guanidium thiocyanate and phenol chloroform method (Chomcyznski, et al., Anal. Biochem., 1987, 162:156-159). For Northern blotting, 15 μg RNA was loaded on a 1.0% agarose-formaldehyde gel (2.0 mol/l), transferred to a nylon membrane (Amersham Pharmacia Biotech AB, Piscataway, N.J.), and UV cross-linked with a UV Stratalinker (Stratagene, Inc., La Jolla, Calif.). Each probe was hybridized with ExpressHyb solution (Clontech Labs., Inc., Palo Alto, Calif.) at 68° C. for 1 hour. The membrane was washed with 2×SSC, 0.05% SDS solution for 30 to 40 minutes and three times at room temperature and 0.1×SSC, 0.1% SDS solution with continuous shaking at 50° C. for 40 minutes. The membrane was exposed to film at −80° C., and radiographs were scanned and analyzed with Optimas 5.0 software (Optimas Co./Media Cybernetics, Silver Springs, Md.). Densitometric units were normalized to the ethidium-stained 28S ribosomal subunit on the membrane.
T1/ST2 mRNA is induced by mechanical strain in cultured neonatal cardiac myocytes. Neonatal rat ventricular myocytes were isolated by collagenase digestion, plated on fibronectin-coated silicone membrane dishes at a density of 3.5 million cells/dish in 13 ml media as previously described (Yamamoto K, et al. J Biol. Chem. 1999; 274:21840-21846). This technique yields cultures with ≧95% myocytes. Mechanical deformation was applied using a device that provides uniform biaxial cyclic strain as previously described (Yamamoto K, et al. J Biol. Chem. 1999; 274:21840-21846). RNA was extracted (Qiagen) and Northern blotting was performed using as a probe a ^32P-labelled 600 bp PCR fragment specific to rat T1/ST2. Maximal induction occurs at 3 hours, is sustained for 9 hours and declines by 15 hours. […]

[2] = system: T1/ST2 mRNA; assay: T1/ST2 mRNA induction in human adult vascular smooth muscle cells; format: cell-based

Compound: O=S(=O)(O)c1cc(O)c(O)c(S(=O)(=O)O)c1 [TIRON]
- mRNA expression of IL1RL-1 in the absence and presence of strain ([1]; FIG. 3, TIRON 10 mM): slightly attenuated

Compound: angiotensin II
- induction of IL1RL-1 mRNA expression in the absence of mechanical strain [1]: did not induce

Compound: Cc1c2oc3c(C)ccc(C(=O)N[C@@H]4C(=O)N[C@H](C(C)C)C(=O)N5CCC[C@H]5C(=O)N(C)CC(=O)N(C)[C@@H](C(C)C)C(=O)O[C@@H]4C)c3nc-2c(C(=O)N[C@@H]2C(=O)N[C@H](C(C)C)C(=O)N3CCC[C@H]3C(=O)N(C)CC(=O)N(C)[C@@H](C(C)C)C(=O)O[C@@H]2C)c(N)c1=O [Actinomycin D, actinomycin D] (I: T[dV]P[Sar][NMeV] / II: T[dV]P[Sar][NMeV]; ester I:1-I:C, II:1-II:C; linker I:N-II:N via Actinocin(9to1))
- effect on the induction of IL1RL-1 mRNA expression by 8% mechanical strain [1]: blocked the induction

Compound: C[C@@H]1C[C@@H]([C@H](O)CC2CC(=O)NC(=O)C2)C(=O)[C@@H](C)C1 [cyclohexamide]
- effect on the induction of IL1RL-1 mRNA expression by 8% mechanical strain [1]: blocked the induction

Compound: OO [H2O2, hydrogen peroxide]
- effect on the strain-induced induction of IL1RL-1 ([1]; FIG. 3, 8% mechanical strain, H2O2 100 uM): blocks the strain-induced induction
- induction of IL1RL-1 in the absence of strain ([1]; FIG. 3, H2O2 100 uM): does not induce

Compound: interleukin-1β [IL-1β]
- induction of T1/ST2 RNA in cardiac myocytes [1]: induce T1/ST2 RNA
- induction of IL1RL-1 mRNA expression in the absence of mechanical strain [1]: associated with an induction
- induction of IL1RL-1 by mechanical strain in the presence of IL-1β ([1]; FIG. 5, 8% strain plus IL-1β 10 ng/ml): not further increased
- rank order potency for the induction of IL1RL-1 mRNA expression ([1]; FIG. 5): PMA>strain>IL-1β
- induction of IL1RL-1 mRNA expression by the agent alone ([1]; FIG. 5): induced
- induction of T1/ST2 by mechanical strain in the presence of interleukin-1β ([1]; FIG. 9, 8% strain plus interleukin-1 10 ng/ml): not further increased
- rank order potency for the induction of T1/ST2 mRNA expression ([1]; FIG. 9, interleukin-1 10 ng/ml): PMA>strain>interleukin-1β
- rank order potency for the induction of T1/ST2 mRNA expression ([1]; FIG. 9, interleukin-1 10 ng/ml, listed as IL-1): PMA>strain>IL-1
- induction of T1/ST2 mRNA in the presence of infection with control adenovirus ([1]; FIG. 10, interleukin-1 10 ng/ml, 4 hours): induced T1/ST2 mRNA
- induction of T1/ST2 mRNA [2]: induced

Compound: CCCCCCCCCCCCCC(=O)O[C@@H]1[C@@H](C)[C@@]2(O)[C@@H](C=C(CO)C[C@]3(O)C(=O)C(C)=C[C@@H]23)[C@@H]2C(C)(C)[C@]12OC(C)=O [PMA]
- induction of IL1RL-1 mRNA expression in the absence of mechanical strain [1]: associated with an induction
- rank order potency for the induction of IL1RL-1 mRNA expression ([1]; FIG. 5): PMA>strain>IL-1β
- induction of IL1RL-1 mRNA expression by the agent alone ([1]; FIG. 5): strongest induction
- rank order potency for the induction of T1/ST2 mRNA expression ([1]; FIG. 9, interleukin-1 10 ng/ml): PMA>strain>interleukin-1β; also recorded: PMA>strain>IL-1
- induction of T1/ST2 mRNA [2]: not
